Results taken from patent US11291663B2, “Methods of treating cancer with farnesyltransferase inhibitors” (Kura Oncology, Inc., priority 2017, dated 2022).

Experiments:
Type in all cases: in vivo, human
relapsed/refractory PTCL = assay: Tipifarnib in relapsed/refractory PTCL patients with available GEP; conditions: of 13 highly advanced relapsed/refractory PTCL patients with available GEP
Excerpt: (§1) CXCL12 expression alone or as a ratio of the expression to its receptor CXCR4 predicted complete response to tipifarnib treatment (p=0.08, p=0.001) (FIG. 20A). CXCL12 and the CXCL12/CXCR4 ratio also were predictive of 2 partial responses (PR) observed in 13 highly advanced relapsed/refractory PTCL patients with available GEP (p=0.009, p=0.0007) (FIG. 20B). Four objective responses and 1 tumor lysis syndrome were reported in 17 tipifarnib-treated CMML subjects with available pre-treatment BM gene expression data (FIG. 20C). CXCL12 expression (p=0.07) and the CXCL12/CXCR4 ratio (p=0.03) were predictive of those events (FIG. 20C). Only 3 CRs were reported in 58 patients with available BM gene expression data in study INT-17.

[1] = tested on: newly diagnosed elderly patients with poor risk AML; assay: Phase 2 study CTEP-20 of tipifarnib
Experimental: (§2) Clinical studies with tipifarnib were performed in newly diagnosed elderly patients with poor risk AML (CTEP-20, Phase 2) and relapsed and refractory AML (INT-17, Phase 2). Patient selection in these studies was not based on genetic markers. Anecdotal evidence of tipifarnib single agent activity was reported. […] Median OS in the overall study was 107 days for the Tipifarnib group and 109 days for the BSC group in AML301.
FIG. 7. (A) PFS probabilities of previously untreated elderly or unfit AML subjects with a high CXCR4/CXCR2 ratio versus the rest of the patients enrolled in study CTEP-20. Outcome and expression data are available for 34 study subjects. Median survival of subjects with a bone marrow CXCR4/CXCR2 expression ratio in the upper quartile was 406 days versus 67 days in quartiles 1st-3rd, HR=0.44, p=0.09. Median overall PFS was 84 days. (B) Survival probabilities of previously untreated elderly or unfit AML subjects with a high CXCR4/CXCR2 ratio versus the rest of the patients in study CTEP-20. Median survival of subjects with a bone marrow CXCR4/CXCR2 expression ratio in the upper quartile was 728 days versus 179 days in quartiles 1st-3rd, HR=0.26, p=0.07. Median overall survival was 233 days.

relapsed/refractory CMML = assay: Tipifarnib-treated CMML subjects (study TIP-004); conditions: of 17 CMML subjects with available pre-treatment BM gene expression data
Excerpt: FIG. 10B. Progression free survival (PFS) probabilities over time (days) for relapsed/refractory CMML subjects in study TIP-004 receiving tipifarnib with relative CXCR4/CXCR2 expression ratios. CMML patients having higher CXCR4/CXCR2 expression ratios responded better to tipifarnib treatment than those having lower CXCR4/CXCR2 expression ratios.
as §1

[2] = tested on: relapsed and refractory AML; assay: Phase 2 study INT-17 of tipifarnib
Experimental: as §2
FIGS. 6A and 6B show graphs illustrating results from a tipifarnib trial with relapsed or refractory AML subjects (INT-17 R/R AML). […] The bone marrow of refractory AML subjects was generally found to express low levels of CXCL12. A small subset of subjects (˜15%) presented high levels of CXCR4, bone marrow homing of tumor cells and sensitivity to tipifarnib. FIG. 6A illustrates relative counts of blood blasts in relapsed or refractory AML patients stratified based on CXCR4 expression levels. […] FIG. 6B illustrates PFS probabilities for relapsed or refractory AML subjects stratified based on CXCR4 expression levels. AML subjects overexpressing CXCR4 (N=8; median PFS=143 days) had better clinical outcomes than AML subjects with relatively lower levels of CXCR4 expression (N=49; median PFS=29 days).
CXCR4/CXCR2 ratio data were available for 57 subjects who experienced an overall survival of 87 days. […]

[3] = tested on: elderly patients with newly diagnosed, de novo, or secondary AML; assay: Ph3 study AML301, tipifarnib versus BSC
Experimental: as §2
AML patients with low percentage of circulating blood blasts (<1 and <10%) and high percentage of bone marrow blasts (>40%) receive clinical benefit from tipifarnib treatment in terms of progression free survival (PFS, CTEP20) or survival (AML301). […] AML301 patients N=82 (18% of study size), HR=0.58, 109 (BSC) vs 201 (tipifarnib) days, P=0.019.
FIGS. 3A-H show results from a clinical tipifarnib trial for subsets of elderly or frail AML patients (AML-301) with varying degrees of neutropenia. […] FIGS. 3B-3F show survival probabilities in AML patient subsets with WBCs>2.1×10^9 cells/L and ANC<1.2×10^9 cells/L (FIG. 3B), ANC<1.0 (FIG. 3C), ANC<0.8 (FIG. 3D), ANC<0.6 (FIG. 3E) and ANC<0.4 (FIG. 3F).

relapsed/refractory AML = assay: Study AMLCG 1999, AraC based chemotherapy by CXCR4/CXCR2 expression ratio; conditions: relapsed/refractory AML subjects
Excerpt: FIG. 11B. Progression free survival (PFS) probabilities over time (days) for relapsed/refractory AML subjects in study AMLCG 1999 receiving AraC based chemotherapy with relative CXCR4/CXCR2 expression ratios.

SMILES | partial responses (PR), number of patients (relapsed/refractory PTCL) | Median survival (PFS panel A) ([1]; CXCR4/CXCR2 expression ratio quartiles 1st-3rd) | best responses of progression of disease (PD), number of patients ([1]; of 34 pts with available BM gene expression data) | HR for survival, upper quartile versus quartiles 1st-3rd of CXCR4/CXCR2 ratio ([1]; p=0.07) | HR for PFS, upper quartile versus quartiles 1st-3rd of CXCR4/CXCR2 ratio ([1]; p=0.09) | tumor lysis syndrome, number of subjects (relapsed/refractory CMML) | CRs, number of patients ([2]; of 58 patients with available BM gene expression data) | HR, 5th quintile of CXCR4/CXCR2 ratio versus rest of the subjects ([2]; p=0.04) | hazard ratio, tipifarnib versus reference therapy ([3]; ANC/WBC<0.3 and marrow blasts >60%, N=110, P=0.08) | hazard ratio, tipifarnib versus BSC ([3]; ANC/WBC<0.4, WBC>2, platelets >20, N=135, P=0.046) | survival probability versus Best Supportive Care ([3]; no marrow homing subset) | HR, tipifarnib versus BSC ([3]; subset with bone marrow blasts >40% and peripheral blood blasts <10%, N=82, P=0.019) | PFS response of patients with higher versus lower CXCR4/CXCR2 expression ratios (relapsed/refractory AML)
Cn1cncc1[C@@](N)(c1ccc(Cl)cc1)c1ccc2c(c1)c(-c1cccc(Cl)c1)cc(=O)n2C [tipifarnib] | 2 | 67 days | 13 | 0.26 | 0.44 | 1 | 3 | 0.52 | 0.67 | 0.7 | no effect | 0.58 | 
Nc1ccn([C@@H]2O[C@H](CO)[C@@H](O)[C@@H]2O)c(=O)n1 [AraC] |  |  |  |  |  |  |  |  |  |  |  |  | no differently
